One assay concerns Raji. Description: Cytotoxicity against human Raji cells by MTT assay. It is filed as functional, cell-based.
The subject of a further assay is HepG2. Description: Cytotoxicity against human HepG2 cells by MTT assay. It is filed as functional, cell-based. (In general: Tetrazolium dyes change colour on reduction, which living cells bring about.)

We go through 13 compounds from ChEMBL document CHEMBL1153336, “Cytotoxicity of cardenolides and cardenolide glycosides from Asclepias curassavica” (Bioorg Med Chem Lett, 2009).

What is called IC50 is the point on the concentration scale where inhibition reaches its midpoint. Read a high IC50 as weaker potency in that assay. As for `C[C@]12CC[C@H]3[C@@H](CC[C@H]4C[C@@H](O)CC[C@@]43CO)[C@@]1(O)CC[C@@H]2C1=CC(=O)OC1` [COROGLAUCIGENIN], the half-maximal inhibitory concentration (IC50) with Raji is 140 nM; in the assay on HepG2 it was 6.7 µM.
The like results for `C[C@@H]1CC(=O)[C@]2(O)O[C@@H]3C[C@@]4(C=O)[C@@H](CC[C@@H]5[C@@H]4CC[C@]4(C)[C@@H](C6=CC(=O)OC6)CC[C@]54O)C[C@H]3O[C@@H]2O1` [USCHARIDIN] were, in that order, 20 nM and 0.38 µM.
As for `C[C@]12CC[C@H]3[C@@H](CC[C@H]4C[C@@H](O)[C@H](O)C[C@@]43C=O)[C@@]1(O)CC[C@@H]2C1=CC(=O)OC1` [CALOTROPAGENIN], the figures for the IC50 in the assay on Raji and with HepG2 were 24300 nM and 56.6 µM, respectively.
As for `CC(=O)O[C@H]1C[C@@H](C)O[C@H]2O[C@@H]3C[C@@H]4CC[C@@H]5[C@H](CC[C@]6(C)[C@@H](C7=CC(=O)OC7)[C@H](OC(C)=O)C[C@]56O)[C@@]4(C=O)C[C@H]3O[C@]21O`, the IC50 in the assay on Raji came to 3210 nM; in the assay on HepG2, 0.76 µM.
The like results for `CC(=O)O[C@H]1C[C@@H](C)O[C@H]2O[C@@H]3C[C@@H]4CC[C@@H]5[C@H](CC[C@]6(C)[C@@H](C7=CC(=O)OC7)CC[C@]56O)[C@@]4(C=O)C[C@H]3O[C@]21O` [ASCLEPIN] were, in that order, 20 nM and 0.02 µM.
For `C[C@@H]1C[C@H](O)[C@]2(O)O[C@@H]3C[C@@]4(C=O)[C@@H](CC[C@@H]5[C@@H]4CC[C@]4(C)[C@@H](C6=CC(=O)OC6)CC[C@]54O)C[C@H]3O[C@@H]2O1` [CALOTROPIN] the same measures were 20 nM and 0.04 µM.
Regarding `CC(=O)O[C@@H]1C[C@]2(O)[C@@H]3CC[C@H]4C[C@H]5O[C@@H]6O[C@H](C)C[C@H](O)[C@]6(O)O[C@@H]5C[C@]4(C=O)[C@H]3CC[C@]2(C)[C@H]1C1=CC(=O)OC1`, the concentration for half-maximal inhibition (IC50) with Raji worked out at 3540 nM; in the assay with HepG2, 1.34 µM.
The like results for `C[C@@H]1C[C@H](O)[C@]2(O)O[C@@H]3C[C@@]4(C=O)[C@@H](CC[C@@H]5[C@@H]4C[C@@H](O)[C@]4(C)[C@@H](C6=CC(=O)OC6)CC[C@]54O)C[C@H]3O[C@@H]2O1` were, in that order, 1460 nM and 0.69 µM.
The like results for `C[C@]12[C@H](O)C[C@H]3[C@@H](CC[C@H]4C[C@@H](O)CC[C@@]43CO)[C@@]1(O)CC[C@@H]2C1=CC(=O)OC1` were, in that order, 14600 nM and 5.17 µM.
The like results for `C[C@]12CC[C@H](O[C@@H]3O[C@H](CO)[C@@H](O)[C@H](O)[C@H]3O)C[C@@H]1CC[C@@H]1[C@@H]2CC[C@]2(C)[C@@H](C3=CC(=O)OC3)CC[C@]12O` [DESGLUCOUZARIN] were, in that order, 750 nM and 8.53 µM.
For the compound `CC(=O)O[C@H]1C[C@@H](C)O[C@H]2O[C@@H]3C[C@@H]4CC[C@@H]5[C@H](CC[C@]6(C)[C@@H](C7=CC(=O)OC7)[C@H](O)C[C@]56O)[C@@]4(C=O)C[C@H]3O[C@]21O`, the half-maximal inhibitory concentration (IC50) in the assay on Raji is 50 nM; in the assay on HepG2 it was 3.03 µM.
Take `CO[C@]12CC[C@@]3(CO1)[C@@H](CC[C@@H]1[C@@H]3C[C@@H](O)[C@]3(C)[C@@H](C4=CC(=O)OC4)CC[C@]13O)C2`: the IC50 with Raji was 64700 nM; in the assay with HepG2, 89.9 µM.
Consider `COc1cc(/C=C/C(=O)OC[C@H]2O[C@@H](O[C@H]3CC[C@@]4(C)[C@@H](CC[C@@H]5[C@@H]4CC[C@]4(C)[C@@H](C6=CC(=O)OC6)CC[C@]54O)C3)[C@H](O)[C@@H](O)[C@@H]2O)ccc1O`, for which the half-inhibitory concentration (IC50) was 41100 nM with Raji and over 100 µM with HepG2.
